From patent publication EP4582413A1, “ARYLTETRAHYDROPYRIDINE COMPOUND AND PEST CONTROL AGENT” (priority 2022, dated 2024)

test system: cat fleas (Ctenocephalides felis); assay: whole plant or invertebrate; assay type: in vivo; settings: 72 h, read-out: death rate
Procedure, shortened: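 Glass containers (25 cm² inner surface) were coated with 250 µl of a 1000 ppm acetone solution, and the acetone was evaporated to leave a dry film. Five mixed-sex adult fleas were confined per container at 25°C. Mortality was scored after 3 days.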

Compound	mortality at 10 µg/cm2
O=C(Nc1cc(F)ccn1)C1=C(O)CC(c2nc(-c3ccns3)no2)NC1=O (stereo not drawn) [3-227]	≥ 50%
O=C(Nc1ccccn1)C1=C(O)CC(c2cnc(Cl)c(-c3ccc(F)nc3)c2)NC1=O (stereo not drawn) [2-096]	≥ 50%
O=C(Nc1ccc(F)cc1)C1=C(O)CC(c2nc(-c3ccccc3)no2)NC1=O (stereo not drawn) [3-001]	≥ 50%

test system: brown rice planthoppers (Nilaparvata lugens); assay: Insecticidal test for brown rice planthoppers; assay type: in vivo; settings: Nilaparvata lugens, 144 h; 500 ppm chemical solution, rice leaf sheaths soaked, third-instar larvae, six days, 25°C; read-out: death rate
Procedure, shortened: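 Rice leaf sheaths dipped ~10 s in 500 ppm compound solution (emulsion diluted in water with spreader), air-dried, then infested with five third-instar larvae per tube at 25 °C. Mortality scored after 6 days, death rate calculated, in duplicate.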

Compound	mortality at 500 µg/mL
O=C(Nc1cc(F)ccn1)C1=C(O)CC(c2nc(-c3ccns3)no2)NC1=O (stereo not drawn) [3-227]	≥ 90%
O=C(Nc1ccccn1)C1=C(O)CC(c2cnc(Cl)c(-c3ccc(F)nc3)c2)NC1=O (stereo not drawn) [2-096]	≥ 90%
O=C(Nc1ccc(F)cc1)C1=C(O)CC(c2nc(-c3ccccc3)no2)NC1=O (stereo not drawn) [3-001]	≥ 90%

test system: diamondback moths (Plutella xylostella); assay: Insecticidal test for diamondback moths; assay type: in vivo; settings: Plutella xylostella, 144 h; 500 ppm chemical solution, leaves soaked, third-instar larvae, six days, 25°C; read-out: death rate
Procedure, shortened: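 Leaves dipped about 10 s in a 500 ppm aqueous dilution of an emulsion formulation with spreader, then air-dried. Five third-instar larvae released per dish and held at 25 °C. Tested in duplicate.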

Compound	mortality at 500 µg/mL
O=C(Nc1cc(F)ccn1)C1=C(O)CC(c2nc(-c3ccns3)no2)NC1=O (stereo not drawn) [3-227]	≥ 90%
O=C(Nc1ccccn1)C1=C(O)CC(c2cnc(Cl)c(-c3ccc(F)nc3)c2)NC1=O (stereo not drawn) [2-096]	≥ 90%
O=C(Nc1ccc(F)cc1)C1=C(O)CC(c2nc(-c3ccccc3)no2)NC1=O (stereo not drawn) [3-001]	≥ 90%

test system: Trichostrongylus axei; assay: Effect test for Trichostrongylus axei; assay type: in vivo; set-up: concentration or dose not given beside the values; settings: test chemical solution B added to eggs in 96-well plate, unhatched eggs and inactive larvae counted 4 days after addition, 25°C, relative to untreated plot
Method: Agar medium with 1% potato dextrose was aliquoted into 60-µl portions in a 96-well plate, and 30 µl of sterilized water containing Trichostrongylus axei eggs and a freeze-dried Escherichia coli OP50 strain (five eggs, 10 µg/10 µl Escherichia coli) was added to each well. From above, 10 µl of test chemical solution B of the presently invented compound was added to each well, and the plate was left to stand under dark conditions at 25°C.

Compound	efficacy (%)
COc1cccc(-c2cc(C3CC(O)=C(C(=O)Nc4ccc(F)cn4)C(=O)N3)cnc2C(F)(F)F)c1 (stereo not drawn) [2-247]	≥ 50%
O=C(Nc1cccnn1)C1=C(O)CC(c2cnc(Cl)c(-c3ccc(F)nc3)c2)NC1=O (stereo not drawn) [2-289]	≥ 50%
O=C(Nc1ccc(F)cn1)C1=C(O)CC(c2cnc(C(F)(F)F)c(-c3ccc(F)cc3)c2)NC1=O (stereo not drawn) [2-244]	≥ 50%
O=C(Nc1ccc(Cl)nc1Cl)C1=C(O)CC(c2cnc(Cl)c(-c3ccc(F)nc3)c2)NC1=O (stereo not drawn) [2-128]	≥ 50%
O=C(Nc1ccc(F)cn1)C1=C(O)CC(c2nc(-c3ccsc3)no2)NC1=O (stereo not drawn) [3-110]	≥ 50%
O=C(Nc1ccc(Cl)cn1)C1=C(O)CC(c2cnc(Cl)c(-c3ccc(F)cc3)c2)NC1=O (stereo not drawn) [2-220]	≥ 50%
Cc1cnc(NC(=O)C2=C(O)CC(c3cnc(Cl)c(-c4ccc(F)nc4)c3)NC2=O)nc1 (stereo not drawn) [2-120]	≥ 50%
O=C(Nc1ncc(F)cc1Cl)C1=C(O)CC(c2cnc(Cl)c(-c3ccc(F)nc3)c2)NC1=O (stereo not drawn) [2-103]	≥ 50%
Cc1cccc(-c2cc(C3CC(O)=C(C(=O)Nc4cc(C#N)ccn4)C(=O)N3)cnc2Cl)c1 (stereo not drawn) [2-262]	≥ 50%
COc1ccccc1-c1cc(C2CC(O)=C(C(=O)Nc3ccc(F)cn3)C(=O)N2)cnc1C(F)(F)F (stereo not drawn) [2-250]	≥ 50%
Cc1cccc(-c2cc(C3CC(O)=C(C(=O)Nc4ccn(C)n4)C(=O)N3)cnc2Cl)c1 (stereo not drawn) [2-256]	≥ 50%
Cc1ccc(NC(=O)C2=C(O)CC(c3cnc(Cl)c(-c4cccc(C)c4)c3)NC2=O)nc1 (stereo not drawn) [2-255]	≥ 50%
O=C(Nc1ccc(F)cn1)C1=C(O)CC(c2cnc(Cl)c(-c3ccnc(F)c3)c2)NC1=O (stereo not drawn) [2-115]	≥ 50%
O=C(Nc1ccc(C(F)(F)F)cn1)C1=C(O)CC(c2cnc(C(F)(F)F)c(-c3ccc(F)nc3)c2)NC1=O (stereo not drawn) [2-179]	≥ 50%
O=C(Nc1ccc(F)cn1)C1=C(O)CC(c2nc(-c3csc(Br)c3)no2)NC1=O (stereo not drawn) [3-086]	≥ 50%
Cc1cccc(-c2cc(C3CC(O)=C(C(=O)Nc4ccc(F)cn4)C(=O)N3)cnc2Cl)c1 (stereo not drawn) [2-252]	≥ 50%
Cc1cccc(-c2cc(C3CC(O)=C(C(=O)Nc4ncccc4C)C(=O)N3)cnc2Cl)c1 (stereo not drawn) [2-272]	≥ 50%
O=C(Nc1ccc(F)cn1)C1=C(O)CC(c2cnc(C(F)(F)F)c(-c3cccnc3)c2)NC1=O (stereo not drawn) [2-251]	≥ 50%
Cc1ccc(-c2noc(C3CC(O)=C(C(=O)Nc4ccc(F)cn4)C(=O)N3)n2)cn1 (stereo not drawn) [3-087]	≥ 50%
Cc1ccc(NC(=O)C2=C(O)CC(c3nc(-c4cccc(F)c4)no3)NC2=O)nc1 (stereo not drawn) [3-128]	≥ 50%
Cc1cc(NC(=O)C2=C(O)CC(c3cnc(Cl)c(-c4ccc(F)nc4)c3)NC2=O)cnc1Cl (stereo not drawn) [2-129]	≥ 50%
Cc1cc(-c2noc(C3CC(O)=C(C(=O)Nc4cc(C(F)(F)F)n(C)n4)C(=O)N3)n2)ccn1 (stereo not drawn) [3-275]	≥ 50%
Cc1cccc(-c2cc(C3CC(O)=C(C(=O)Nc4ccc(C#N)nc4)C(=O)N3)cnc2Cl)c1 (stereo not drawn) [2-266]	≥ 50%
Cc1ccnc(NC(=O)C2=C(O)CC(c3cnc(Cl)c(-c4ccc(F)nc4)c3)NC2=O)c1 (stereo not drawn) [2-153]	≥ 50%
Cn1nc(Cl)c(-c2noc(C3CC(O)=C(C(=O)Nc4ccccn4)C(=O)N3)n2)c1Cl (stereo not drawn) [3-170]	≥ 50%
O=C(Nc1ccc(F)cn1)C1=C(O)CC(c2nc(-c3cncs3)no2)NC1=O (stereo not drawn) [3-097]	≥ 50%
Cn1nccc1NC(=O)C1=C(O)CC(c2cnc(Cl)c(-c3ccc(F)cc3)c2)NC1=O (stereo not drawn) [2-290]	≥ 50%

Compound	efficacy (%)
O=C(Nc1ccc(F)cn1)C1=C(O)CC(c2cnc(C(F)(F)F)c(-c3ccccc3F)c2)NC1=O (stereo not drawn) [2-249]	≥ 50%
Cn1nc(Cl)c(-c2noc(C3CC(O)=C(C(=O)Nc4ccc(F)cn4)C(=O)N3)n2)c1Cl (stereo not drawn) [3-114]	≥ 50%
O=C(Nc1ccc(F)cn1)C1=C(O)CC(c2nc(-c3ccc(F)c(Cl)c3)no2)NC1=O (stereo not drawn) [3-141]	≥ 50%
O=C(Nc1ccc(Cl)cn1)C1=C(O)CC(c2cnc(C(F)(F)F)c(-c3ccc(F)nc3)c2)NC1=O (stereo not drawn) [2-169]	≥ 50%
O=C(Nc1ccc(Cl)cn1)C1=C(O)CC(c2nc(-c3cccc(F)c3)no2)NC1=O (stereo not drawn) [3-180]	≥ 50%
O=C(Nc1cnccn1)C1=C(O)CC(c2cnc(Cl)c(-c3ccc(F)nc3)c2)NC1=O (stereo not drawn) [2-133]	≥ 50%
O=C(Nc1ccc(Cl)nc1)C1=C(O)CC(c2nc(-c3ccnc(F)c3)no2)NC1=O (stereo not drawn) [3-060]	≥ 50%
O=C(Nc1ccc(F)c(F)c1)C1=C(O)CC(c2nc(-c3ccc(F)nc3)no2)NC1=O (stereo not drawn) [3-274]	≥ 50%
O=C(Nc1ccc(F)cn1)C1=C(O)CC(c2nc(-c3ccncc3F)no2)NC1=O (stereo not drawn) [3-064]	≥ 50%
O=C(Nc1ccc(SC(F)(F)F)cc1)C1=C(O)CC(c2cnc(Cl)c(-c3ccc(F)nc3)c2)NC1=O (stereo not drawn) [2-038]	≥ 50%
O=C(Nc1nc[nH]n1)C1=C(O)CC(c2cnc(Cl)c(-c3ccc(F)cc3)c2)NC1=O (stereo not drawn) [2-291]	≥ 50%
Cc1cccc(-c2cc(C3CC(O)=C(C(=O)Nc4ccc(Cl)nc4)C(=O)N3)cnc2Cl)c1 (stereo not drawn) [2-254]	≥ 50%
O=C(Nc1ccc(Cl)nc1)C1=C(O)CC(c2cnc(C(F)(F)F)c(-c3ccc(F)nc3)c2)NC1=O (stereo not drawn) [2-170]	≥ 50%
COc1ccc(-c2noc(C3CC(O)=C(C(=O)Nc4ccc(F)cn4)C(=O)N3)n2)cc1 (stereo not drawn) [3-137]	≥ 50%
O=C(Nc1ccc(F)cn1)C1=C(O)CC(c2cnc(C(F)(F)F)c(-c3cccc(F)c3)c2)NC1=O (stereo not drawn) [2-246]	≥ 50%
O=C(Nc1ccc(Br)c(F)n1)C1=C(O)CC(c2cnc(Cl)c(-c3ccc(F)nc3)c2)NC1=O (stereo not drawn) [2-132]	≥ 50%
Cc1cc(-c2noc(C3CC(O)=C(C(=O)Nc4ccc(F)cn4)C(=O)N3)n2)ccn1 (stereo not drawn) [3-061]	≥ 50%
N#Cc1ccc(NC(=O)C2=C(O)CC(c3cnc(Cl)c(-c4ccc(F)nc4)c3)NC2=O)nc1 (stereo not drawn) [2-088]	≥ 50%
O=C(Nc1ncc(Cl)nc1Cl)C1=C(O)CC(c2cnc(Cl)c(-c3ccc(F)nc3)c2)NC1=O (stereo not drawn) [2-131]	≥ 50%
Cc1ccc(NC(=O)C2=C(O)CC(c3nc(-c4ccccc4F)no3)NC2=O)nc1 (stereo not drawn) [3-129]	≥ 50%
O=C(Nc1ccc(F)cn1)C1=C(O)CC(c2cnc(C(F)(F)F)c(-c3ccc(F)nc3)c2)NC1=O (stereo not drawn) [2-167]	≥ 50%
Cn1ccc(NC(=O)C2=C(O)CC(c3cnc(C(F)(F)F)c(-c4ccc(F)nc4)c3)NC2=O)n1 (stereo not drawn) [2-172]	≥ 50%
O=C(Nc1ccc(C(F)(F)F)nc1)C1=C(O)CC(c2cnc(Cl)c(-c3ccc(F)cc3)c2)NC1=O (stereo not drawn) [2-234]	≥ 50%
Cn1ccc(NC(=O)C2=C(O)CC(c3nc(-c4ccc(F)cc4F)no3)NC2=O)n1 (stereo not drawn) [3-154]	≥ 50%
Cc1ccc(NC(=O)C2=C(O)CC(c3cnc(C(F)(F)F)c(-c4ccc(F)nc4)c3)NC2=O)nc1 (stereo not drawn) [2-171]	≥ 50%
Cc1ccc(NC(=O)C2=C(O)CC(c3cnc(Cl)c(-c4cccc(C)c4)c3)NC2=O)nc1 (stereo not drawn) [2-273]	≥ 50%
O=C(Nc1ccc(Cl)cn1)C1=C(O)CC(c2nc(-c3ccc(F)nc3)no2)NC1=O (stereo not drawn) [3-102]	≥ 50%

test system: western flower thrips (Frankliniella occidentalis); assay: Insecticidal activity against western flower thrips; assay type: in vivo; settings: Frankliniella occidentalis, 48 h; 500 ppm chemical solution sprinkled (2.5 mg/cm^2), larvae on common bean leaf, after 2 days; read-out: death rate
Procedure, shortened: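 Bean leaf squares on wet filter paper inoculated with 20 larvae. Compound emulsion diluted with spreader-containing water to 500 ppm and sprayed at 2.5 mg/cm^2 by rotary tower. Run in duplicate.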

Compound	mortality at 500 µg/mL
O=C(Nc1cc(F)ccn1)C1=C(O)CC(c2nc(-c3ccns3)no2)NC1=O (stereo not drawn) [3-227]	≥ 90%
O=C(Nc1ccccn1)C1=C(O)CC(c2cnc(Cl)c(-c3ccc(F)nc3)c2)NC1=O (stereo not drawn) [2-096]	≥ 90%
O=C(Nc1ccc(F)cc1)C1=C(O)CC(c2nc(-c3ccccc3)no2)NC1=O (stereo not drawn) [3-001]	≥ 90%
